These results are taken from patent publication US8980944B2 (Gemmus Pharma Inc., priority 2006, dated 2015).

Assay [1] deals with TNFα. Kind of assay: Poly(I:C)-stimulated human peripheral blood lymphocytes, TNFα release (ELISA). Background: An ELISA detects its analyte on a solid surface through an enzyme-linked reagent.
For assay [2], the system named is TNFα. Put plainly: Poly(I:C)-stimulated human monocyte-derived dendritic cells, TNFα release (ELISA). The format is cell-based. The conditions noted are these: Poly IC-stimulated monocyte-derived dendritic cells, one micromolar, 18 hours.
Assay [3] deals with IL-12. Put plainly: LPS-stimulated human monocyte-derived dendritic cells, IL-12 release (ELISA). As to conditions: 1 μM; human monocyte-derived dendritic cells, LPS stimulation; individual donors 1-4.
For assay [4], the system named is TNFα. Kind of assay: TNFα release from human monocyte-derived dendritic cells activated with LPS, CD40 ligand or CpG-DNA (ELISA). As to conditions: 1 μM; for TNFα in culture supernatant: 18 hours. Format: cell-based. On the procedure:
Human donor monocyte-derived dendritic cells were cultured in RPMI-1640 containing 10% fetal bovine serum for six days in the presence of 10 ng/mL IL-4 and 200 ng/mL GM-CSF. The cells were activated with various activation stimuli: 10 ng/mL LPS (Sigma), 5 μg/mL Recombinant human CD-40 ligand (R&D Systems), or 5 μM Human CpG-DNA (HyCult Biotechnology) in the presence of prostaglandin E2 (PGE2) (1 μM), vehicle control (DMSO) or test substances (1 μM) for 18 hours. The levels of cell culture supernatant TNFα for individual donors was measured by commercial ELISA kits.

In assay [5] the test system is IL-12. The conditions noted are these: DC activated in the presence of PGE2; Hilkens et al. 1996; cited from earlier work.
For assay [6], the system named is H5N1 influenza virus. As to conditions: mice infected with H5N1 influenza virus, treated; cited from earlier work.
Where [7] appears, read: CD40 ligand 5 μg/mL, Donor 3, Vehicle 567.1.
[8] abbreviates: CD40 ligand 5 μg/mL, Donor 4, Vehicle 546.3.
[9] abbreviates: CD40 ligand 5 μg/mL, Donor 6, Vehicle 541.8.
[10] abbreviates: CpG 5 μM, Donor 1, Vehicle 2155.9.
The mark [11] stands for this setting: CpG 5 μM, Donor 3, Vehicle 1340.7.
Where [12] appears, read: CpG 5 μM, Donor 6, Vehicle 467.8.
Setting [13] is: LPS 10 ng/mL, Donor 4, Vehicle 3566.9.
Where [14] appears, read: LPS 10 ng/mL, Donor 6, Vehicle 10750.1.

SMILES strings stand for the structures. Several values for one entry are separate records, joined by “and”; a condition that tells them apart may be missing. Identical values can stand only once.

In general, inhibition refers to the share of the control response that was lost under treatment. Take `CC#CCC(C)[C@H](O)/C=C/[C@@H]1[C@H]2c3cccc(CCCC(=O)O)c3O[C@H]2C[C@H]1O` (relative stereo) [Beraprost, (+/−)-(1R*,2R*,3 as*,8bS*)-2,3,3a,8b-tetrahydro-2-hydroxy-1-[(E)-(3S*)-3-hydroxy-4-methyl-1-octen-6-ynyl]-1H-cyclopenta[b]benzofuran-5-butyrate]: the “TNFα percent inhibition from untreated control” value in assay [1] (Beraprost 0.04 nM, Poly IC-stimulated peripheral blood lymphocytes, individual donors 1-2) was 4%; in assay [1] (Beraprost 0.11 nM, Poly IC-stimulated peripheral blood lymphocytes, individual donors 1-2) it was 26%; in assay [1] (Beraprost 1 nM, Poly IC-stimulated peripheral blood lymphocytes, individual donors 1-2), 11% and 28%; in assay [1] (Beraprost 3 nM, Poly IC-stimulated peripheral blood lymphocytes, individual donors 1-2) it was 36% and 11%; in assay [1] (Beraprost 9 nM, Poly IC-stimulated peripheral blood lymphocytes, individual donors 1-2), 35%; in assay [1] (Beraprost 250 nM, Poly IC-stimulated peripheral blood lymphocytes, individual donors 1-2), 59%. Also, the inhibition at 0.00011 µM in assay [1] (Homo sapiens, Lymphocyte, read-out: TNFα percent inhibition from untreated control, Beraprost 0.11 nM, Poly IC-stimulated peripheral blood lymphocytes, individual donors 1-2) came to 19%. In assay [1] (Homo sapiens, Lymphocyte, read-out: TNFα percent inhibition from untreated control, Beraprost 9 nM, Poly IC-stimulated peripheral blood lymphocytes, individual donors 1-2), the inhibition at 0.009 µM amounted to 46%. The inhibition at 0.083 µM in assay [1] (Homo sapiens, Lymphocyte, read-out: TNFα percent inhibition from untreated control, Beraprost 83 nM, Poly IC-stimulated peripheral blood lymphocytes, individual donors 1-2) stood at 56%. In assay [1] (Homo sapiens, Lymphocyte, read-out: TNFα percent inhibition from untreated control, Beraprost 250 nM, Poly IC-stimulated peripheral blood lymphocytes, individual donors 1-2), the inhibition at 0.25 µM stood at 67%. Also, the “Poly(I:C)-induced TNFα” value in assay [1] (peripheral blood lymphocytes) is on record as “significant descrease”.

As for `CCCCC[C@H](O)/C=C/[C@H]1[C@H](O)CC(=O)[C@@H]1C/C=C\CCCC(=O)O` [PGE2, prostaglandin E2, reference compound], the “TNFα percent inhibition from untreated control” value in assay [2] (Donor 1) was 96%; in assay [2] (Donor 2) it was 63%; in assay [2] (Donor 3), 81%; in assay [2] (Donor 4) it was 29%. For the same molecule, in assay [3], the “Percent inhibition of IL-12 compared to uninhibited control” value is 80% and 33% and 83% and 72%. The “TNFα in culture supernatant” value in assay [4] (setting [7]) was determined as 147.9 pg/mL; in assay [4] (setting [8]), 87.0 pg/mL; in assay [4] (setting [9]) it was 54.2 pg/mL; in assay [4] (setting [10]), 104.5 pg/mL; in assay [4] (setting [11]) it was 70.0 pg/mL; in assay [4] (setting [12]), 106.2 pg/mL. Besides, the entries for the “TNFα in culture supernatant” value in assay [4] (setting [13]) and in assay [4] (setting [14]) were 0.0 pg/mL and 174.8 pg/mL, respectively. Further, the “IL-12 production by dendritic cells” value in assay [5] is on record as “impaired IL-12 production”.

Take `CCOC(=O)C1=C[C@@H](OC(CC)CC)[C@H](NC(C)=O)[C@@H](N)C1` [Tamiflu, oseltamivir]: the “survival of infected mice” value in assay [6] is “survived”.

`CCC1(CC/C=C/C2C(C/C=C\CCCC(=O)O)[C@H](Cl)C[C@H]2O)CCCC1` (stereo partly drawn) [Test Substance 1, (5Z,13E)-(9R,11R)-9-chloro-11-hydroxy-17,17-tetramethylene-20-nor-5,13-prostadienoic acid]: in assay [4] (LPS, CD40 ligand or CpG activation), the “cytokine levels measured in the culture supernatant” value is reported as “led to an inhibition in the cytokine levels”. Moreover, the “TNFα in culture supernatant” value in assay [4] (setting [7]) was determined as 274.3 pg/mL; in assay [4] (setting [8]) it was 226.8 pg/mL; in assay [4] (setting [9]), 142.4 pg/mL; in assay [4] (setting [10]) it was 291.3 pg/mL; in assay [4] (setting [11]) it was 599.4 pg/mL; in assay [4] (setting [12]) it was 115.9 pg/mL. Further, the figures for the “TNFα in culture supernatant” value in assay [4] (setting [13]) and in assay [4] (setting [14]) were 643.6 pg/mL and 753.7 pg/mL, respectively.
